What all share (assay): NCI anticancer screen, dose series, 48 h
Assay [1] concerns MCF7 breast.
Assay [2] concerns T-47D breast.
Assay [3] has as its system MDA-N.
The subject of assay [4] is DLD-1 colon.
Assay [5] relates to M19-MEL melanoma.
Assay [6] relates to XF 498 CNS.
Assay [7] concerns HOP-18 NSCLC.

In brackets after ≈: the same amount, converted by molar mass. Several values for one entry are separate records, joined by “and”; a condition that tells them apart may be missing. Equal values may be shown once.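 Tested at 5 concentrations; 48 h exposure; 96-well plates; endpoints linearly interpolated, else capped at highest concentration. GI50 marks 50% less growth. Definition used: TGI = concentration required for complete inhibition of growth.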

Consider `Nc1nc(N)[n+]([O-])c(N)c1NCO`, for which the TGI in assay [1], in assay [2] and in assay [3] was greater than 100 µM each time.

In the case of `O=C1C2CC(Cl)C(SSC3CC4C(=O)N(SC(Cl)(Cl)C(Cl)Cl)C(=O)C4CC3Cl)CC2C(=O)N1SC(Cl)(Cl)C(Cl)Cl` (stereo unspecified), the values for the TGI in assay [1], in assay [2] and in assay [3] were 7.67 µM, 7.18 µM and 6.71 µM, respectively.

With `Cc1cc2c(C)c3cc(C)c(N)cc3nc2cc1N`, in assay [1], the GI50 is 342 nM and the TGI stood at 4.38 µM. In addition, in assay [2], the GI50 is 0.754 µM and the TGI was 5.28 µM.

Turning to `C[C@@H](c1ccc2nccn2c1)n1nnc2ncc(-c3cnn(C)c3)nc21`, in assay [1], the GI50 is greater than 100000 nM and the TGI is greater than 100 µM. For the same molecule, in assay [2], the GI50 was 53 µM and the TGI was greater than 100 µM.

Take `Cc1ccc2c(c1)NC(c1ccc(C(=O)O)cc1)c1cccn1-2` (stereo unspecified): the TGI was greater than 100 µM in assay [1], 49.2 µM in assay [2] and greater than 100 µM in assay [3].

In the case of `COc1cc(-c2cc(C(=O)N3CCN(C(=O)c4ccccc4NCc4ccco4)CC3)nc3cc(-c4ccccc4)nn23)cc(OC)c1OC`, in assay [1], the GI50 is 920 nM and the TGI is greater than 100 µM. In assay [2], the GI50 was 2.94 µM and the TGI was greater than 100 µM.

In turn, `O=S(=O)(c1ccc(NC(=S)N/N=C/c2ccccc2O)cc1)N1CCCCC1` had a TGI in assay [2] greater than 52.8 µM.

On to `Nc1cccc2c1C(=O)N(C1CCC(=O)NC1=O)C2=O` (stereo unspecified), for which the GI50 was greater than 100000 nM in assay [1] and greater than 100 µM in assay [2]. Further, the TGI in assay [1] and in assay [2] was greater than 100 µM each time.

Regarding `COc1cccc(NC(=O)c2sc3nc4c(cc3c2N)CCCC4)c1`, the values for the GI50 in assay [1] and in assay [2] were 314 nM and 0.529 µM, respectively. Further, the TGI in assay [1] and in assay [2] was greater than 100 µM throughout.

Take `COc1cc(CCc2cc(NC(=O)c3ccc(N4C[C@@H](C)N[C@@H](C)C4)cc3)n[nH]2)cc(OC)c1`: in assay [1], the GI50 is 3290 nM and 2850 nM; the TGI is > 10 µM and 15.8 µM. In assay [2], the GI50 is > 10 µM and 15.3 µM; the TGI was > 10 µM and 31.6 µM.

Take `ClC(=Nc1cccc2ccccc12)N(c1ccccc1)c1ccccc1`: the TGI in assay [1], in assay [2] and in assay [3] was greater than 100 µM throughout.

For the molecule `COc1cc(O)c(C(=O)/C=C/c2ccccc2)c(OC)c1`, the TGI worked out at 24.2 µM in assay [1], 24.6 µM in assay [2] and 14.7 µM in assay [3].

Regarding `O=[N+]([O-])c1ccc(Sc2ncccn2)c([N+](=O)[O-])c1`, in assay [1], the GI50 is 3680 nM and the TGI stood at 17.7 µM. In assay [2], the GI50 was 3.01 µM and the TGI was 15 µM.

As for `O=C(Nc1ccncc1)C(=O)c1cn(S(=O)(=O)c2ccc(Br)cc2)c2ccccc12`, in assay [2], the GI50 is 7.74 µM and the TGI was greater than 100 µM.

As for `COc1cc2c3c(n(C)c(=O)c2cc1OC)-c1cc2c(cc1/C3=C\CCCCN)OCO2`, in assay [1], the GI50 was 3460 nM and the TGI is 12.7 µM. Besides, in assay [2], the GI50 is 37.7 µM and the TGI is greater than 100 µM.

For the molecule `CCCCCCCCCCCCCCCCCCNC(=O)[C@H]1CSC(c2ccc(OC)c(F)c2)N1` (stereo partly specified), in assay [1], the GI50 is 386 nM and the TGI is 1.4 µM. For the same molecule, in assay [2], the GI50 was 2.21 µM and the TGI turned out to be 6.57 µM.

With `CC12OC(C(=O)C13CC3)C1C(=O)c3ccccc3C(=O)C12` (stereo unspecified), in assay [1], the GI50 is 21200 nM and the TGI was 78.6 µM. In addition, in assay [2], the GI50 is 24.4 µM and the TGI is greater than 100 µM.

Regarding `COC(=O)Nc1nc2ccc(C(=O)c3ccc[nH]3)cc2[nH]1`, the TGI in assay [1] was greater than 100 µM; in assay [2] it was greater than 100 µM; in assay [3], 0.419 µM.

For the molecule `O=C1/C(=C\c2ccc(Cl)cc2)CN(C(=S)Nc2ccccc2)C/C1=C\c1ccc(Cl)cc1`, the GI50 in assay [1] was 292 nM; in assay [2], 1.1 µM. In addition, the TGI in assay [1] was 1.15 µM; in assay [2] it was 3.61 µM.

As to `Cc1cc(NC(=O)C2c3ccccc3C(=O)N(CC(C)C)C2c2cccs2)no1` (stereo unspecified), the GI50 in assay [1] was 60000 nM; in assay [2], greater than 100 µM. Moreover, the TGI in assay [1] and in assay [2] was greater than 100 µM in each case.

`CC(=O)c1ccc(Nc2cc(-n3ccnc3)nc3ccccc23)cc1`: in assay [1], the GI50 was 36000 nM and the TGI is greater than 100 µM. In addition, in assay [2], the GI50 was greater than 100 µM and the TGI is greater than 100 µM.

For the molecule `Cn1nc(-c2ccccc2NC(=O)C(F)(F)F)c(=O)n(C)c1=S`, the values for the TGI in assay [4], in assay [5] and in assay [6] were greater than 100 µM, 48.7 µM and 36.9 µM, respectively.

As to `CCOC(=O)c1cnc(SCc2ccc(Cl)c(Cl)c2)nc1N1CC1`, in assay [1], the GI50 was 1270 nM and the TGI was determined as 11.4 µM. In assay [2], the GI50 was 3.15 µM and the TGI came to 19.5 µM.

Turning to `COc1ccc(N(C)c2nc(C)nc3ccccc23)cc1`, the GI50 in assay [1] is less than 10 nM; in assay [2] it was 14.2 µM. The TGI in assay [1] and in assay [2] was greater than 100 µM throughout.

Turning to `C[C@H]1[C@H](OC(=O)CCC(=O)O)O[C@@H]2O[C@]3(C)CC[C@H]4[C@H](C)CC[C@@H]1[C@@]24OO3`, in assay [1], the GI50 was 698 nM and the TGI is 20.8 µM. Further, in assay [2], the GI50 was 0.4 µM and the TGI was determined as 22.7 µM.

Regarding `C=C(c1ccccc1N)[C@@]1(O)C[C@H](/C(=C\C)CO)C[C@@H]1NCc1ccccc1`, the TGI in assay [5] came out at 62.1 µM; in assay [7] it was 52.4 µM.

Take `CC1(C)CC(=O)C2=C(C1)NC(SSC1=C(C#N)C(c3ccccc3)C3=C(CC(C)(C)CC3=O)N1)=C(C#N)C2c1ccccc1` (stereo unspecified): the GI50 is 35.6 µg/mL in assay [1], 30.7 µg/mL in assay [2] and 21 µg/mL (≈ 33.9 µM) in assay [3]. Moreover, the values for the TGI in assay [1], in assay [2] and in assay [3] were 85.6 µg/mL, 62.4 µg/mL and 40.4 µg/mL, respectively.

These data come from PubChem BioAssay (NCI).
